Data as given in patent publication US20120059024A1 (priority 2009, published 2012).
Values joined by “and” are separate entries in the source; they are usually repeats but may differ in a detail not shown here. Identical values can stand only once. Like-named read-outs stand apart in the source and are kept apart here.

What was measured:
[1] = in vivo, cited from earlier work
[2] = Mean Equivalent Daily Dose (MEDD) conversion table for opioids; format: in vivo
[3] = test system: young adult Wistar rats; settings: intraperitoneal
[4] = test system: human volunteers; assay: Human drug liking study; settings: any dose of oxycodone alone vs same dose combined with 100 mg flupirtine, oral capsule

## COc1ccc2c3c1O[C@H]1[C@@H](O)C=C[C@H]4[C@@H](C2)N(C)CC[C@@]341 [Codeine]
[1]; po
  MEDD-Factor: 0.05
[1]; sc
  MEDD-Factor: 0.1
[1]
  MEDD-Factor: 0.1 and 0.05

## CC(=O)Oc1ccc2c3c1O[C@H]1[C@@H](OC(C)=O)C=C[C@H]4[C@@H](C2)N(C)CC[C@@]341 [Diamorphine]
[1]; po
  MEDD-Factor: 0.65
[1]; sc
  MEDD-Factor: 1.3

## COc1ccc2c3c1O[C@H]1C(=O)CC[C@H]4[C@@H](C2)N(C)CC[C@]314 [Hydrocodone]
[1]; po
  MEDD-Factor: 0.4

## CN1CC[C@]23CCCC[C@H]2[C@H]1Cc1ccc(O)cc13 [Levo-dromoran]
[1]; sc
  MEDD-Factor: 5
[1]
  MEDD-Factor: 0.25

## CCOC(=O)C1(c2ccccc2)CCN(C)CC1 [Meperidine]
[1]; iv
  MEDD-Factor: 0.1
[1]; po
  MEDD-Factor: 0.05
[1]; sc
  MEDD-Factor: 0.1

## CCC(=O)C(CC(C)N(C)C)(c1ccccc1)c1ccccc1 (stereo not drawn) [Methadone]
[1]; iv
  MEDD-Factor: 8
[1]; po
  MEDD-Factor: 4
[1]; sc
  MEDD-Factor: 8

## CN1CC[C@]23c4c5ccc(O)c4O[C@H]2[C@@H](O)C=C[C@H]3[C@H]1C5 [Morphine]
[2]; administered intravenously
  dose equivalent to a 100 mg dose of morphine administered orally: 40 mg
[3]; 1.6 mg/kg morphine
  sedation: not sedating
[1]; iv
  MEDD-Factor: 1
[1]; po
  MEDD-Factor: 0.4
[1]; sc
  MEDD-Factor: 1

## COc1ccc2c3c1O[C@H]1C(=O)CC[C@@]4(O)[C@@H](C2)N(C)CC[C@]314 [Oxycodone]
[2]; orally administered
  dose equivalent to a 100 mg dose of morphine administered orally: 63 mg
[1]; po
  MEDD-Factor: 0.63
[1]; sc
  MEDD-Factor: 1.5
[4]
  subject preference (drug liking): preferred to, or no less preferred to

## COc1cccc(C2(O)CCCCC2CN(C)C)c1 (stereo not drawn) [Tramadol]
[1]; po
  MEDD-Factor: 0.05
[1]; sc
  MEDD-Factor: 0.1

## CCOC(=O)Nc1ccc(NCc2ccc(F)cc2)nc1N [flupirtine]
[3]; 10 mg/kg flupirtine, criteria of Goodchild et al. 2008
  sedation: non-sedating
[3]; 20 mg/kg flupirtine, criteria of Goodchild et al. 2008
  sedation: sedating
